In ChEMBL document CHEMBL4229478, “Synthesis, Characterization, and Biological Evaluation of a Porphyrin-Based Photosensitizer and Its Isomer for Effective Photodynamic Therapy against Breast Cancer” (J Med Chem, 2018):
Active and inactive are the calls of the source. The calls are words filed in the database; no cut-off is given here.

Tests used:
MDA-MB-231 [1] = assay: Induction of ROS generation in human MDA-MB-231 cells incubated with DCF-DA probe for 30 mins by flow cytometric analysis (reference value: 4.38%); type: cell-based; details: mda-mb-231, 0.5 h
Mus musculus [2] = assay: Toxicity in BALB/c mouse xenografted with mouse 4T1 cells assessed as pathological changes in lung at 4 mg/kg, iv pre-tretaed for 24 hrs followed by 50 J/cm2 light irradiation and measured at day 22 post dose by hematoxylin and eosin staining based light microscopic analysis; type: organism-based; details: in vivo
4T1 [3] = assay: Phototoxicity against mouse 4T1 cells assessed as cell viability at 5 uM preincubated for 4 hrs followed by 0.5 to 2 J/cm2 light irradiation and measured after 24 hrs by MTT assay; type: functional, cell-based
[4] = Selectivity index, ratio of dark toxicity against human MCF7 at 5 uM cells to phototoxicity against human MCF7 cells at 5 uM; type: cell-based; details: read-out: Selectivity Index
4T1 [5] = assay: Antitumor activity against mouse 4T1 cells xenografted in BALB/c mouse assessed as tumor growth inhibition at 4 mg/kg, iv pretreated for 24 hrs followed by 50 J/cm2 light irradiation and measured at day 22 post last dose; type: functional, organism-based
4T1 [6] = assay: Induction of apoptosis in mouse 4T1 cells xenografted in BALB/c mouse at 4 mg/kg, iv pretreated for 24 hrs followed by 50 J/cm2 light irradiation by TUNEL assay; type: functional, organism-based
[7] = Selectivity index, ratio of dark toxicity against mouse 4T1 cells at 5 uM to phototoxicity against mouse 4T1 cells at 5 uM; type: cell-based; details: read-out: Selectivity Index
[8] = Drug uptake in mitochondria of human MDA-MB-231 cells after 4 hrs by Mito tracker green-based confocal laser scanning microscopic analysis; type: ADME; details: mda-mb-231, 4 h
[9] = Induction of apoptosis in human MDA-MB-231 cells assessed as viable cells after 24 hrs by Annexin-V FITC/propidium iodide staining based flow cytometric analysis (reference value: 93.27%); type: cell-based; details: read-out: Activity
[10] = Dark toxicity against human MDA-MB-231 cells assessed as cell viability at 5 uM after 24 hrs by MTT assay; type: cell-based; details: mda-mb-231, 24 h
Mus musculus [11] = assay: Toxicity in BALB/c mouse xenografted with mouse 4T1 cells assessed as effect on body weight at 4 mg/kg, iv pre-tretaed for 24 hrs followed by 50 J/cm2 light irradiation and measured at day 22 post dose; type: organism-based; details: in vivo
MDA-MB-231 [12] = assay: Induction of apoptosis in human MDA-MB-231 cells assessed as early apoptotic cells after 24 hrs by Annexin-V FITC/propidium iodide staining based flow cytometric analysis (reference value: 1.22%); type: cell-based; details: mda-mb-231, 24 h
[13] = Drug uptake in kidney of BALB/c mouse xenografted with mouse 4T1 cells at 10 mg/kg, iv measured at 12 hrs post injection by IVIS spectrum imaging; type: ADME, organism-based; details: in vivo
[14] = Drug uptake in lung of BALB/c mouse xenografted with mouse 4T1 cells at 10 mg/kg, iv measured at 12 hrs post injection by IVIS spectrum imaging; type: ADME, organism-based; details: in vivo
MCF7 = assay: Phototoxicity against human MCF7 cells assessed as cell viability at 5 uM preincubated for 4 hrs followed by 0.5 to 2 J/cm2 light irradiation and measured after 24 hrs by MTT assay; type: functional, cell-based
MDA-MB-231 [15] = assay: Induction of ROS generation in human MDA-MB-231 cells incubated with DCF-DA probe for 30 mins prior to ROS scavenger NAC addition 1 hr before 2 J/cm2 light irradiation and measured after 1 hr post irradiation by flow cytometric analysis; type: functional, cell-based
MDA-MB-231 [16] = assay: Induction of apoptosis in human MDA-MB-231 cells assessed as late apoptotic cells after 24 hrs upon light irradiation by Annexin-V FITC/propidium iodide staining based flow cytometric analysis (reference value: 1.28%); type: functional
MDA-MB-231 [17] = assay: Phototoxicity against human MDA-MB-231 cells assessed as cell viability at 5 uM preincubated for 4 hrs followed by 0.5 to 2 J/cm2 light irradiation and measured after 24 hrs by MTT assay; type: functional, cell-based
[18] = Drug uptake in human MDA-MB-231 cells at 5 to 10 uM after 4 hrs by fluorescence microscopic analysis; type: ADME, cell-based; details: mda-mb-231, 4 h
[19] = Tmax in tumor of BALB/c mouse xenografted with mouse 4T1 cells at 10 mg/kg, iv measured after […] by fluorescence assay; type: ADME, organism-based, Neoplasm
MDA-MB-231 [20] = assay: Induction of apoptosis in human MDA-MB-231 cells assessed as necrotic cells after 24 hrs upon light irradiation by Annexin-V FITC/propidium iodide staining based flow cytometric analysis (reference value: 4.24%); type: functional
[21] = Drug uptake in tumor of BALB/c mouse xenografted with mouse 4T1 cells at 10 mg/kg, iv measured up to 3 to 24 hrs post injection by fluorescence assay; type: ADME, organism-based, Neoplasm; details: in vivo
[22] = Induction of singlet oxygen generation in cell free condition upon 635 nm semiconductor laser light irradiation by singlet oxygen sensor green dye based fluorescence spectrophotometeric analysis; type: functional
[23] = Drug uptake in spleen of BALB/c mouse xenografted with mouse 4T1 cells at 10 mg/kg, iv measured at 12 hrs post injection by IVIS spectrum imaging; type: ADME, organism-based; details: in vivo
Mus musculus [24] = assay: Toxicity in BALB/c mouse xenografted with mouse 4T1 cells assessed as pathological changes in spleen at 4 mg/kg, iv pre-tretaed for 24 hrs followed by 50 J/cm2 light irradiation and measured at day 22 post dose by hematoxylin and eosin staining based light microscopic analysis; type: organism-based; details: in vivo
MDA-MB-231 [25] = assay: Induction of ROS generation in human MDA-MB-231 cells incubated with DCF-DA probe for 30 mins followed by 2 J/cm2 light irradiation and measured after 1 hr by flow cytometric analysis (reference value: 4.38%); type: functional
Mus musculus [26] = assay: Nephrotoxicity in BALB/c mouse xenografted with mouse 4T1 cells assessed as pathological changes in kidney at 4 mg/kg, iv pre-tretaed for 24 hrs followed by 50 J/cm2 light irradiation and measured at day 22 post dose by hematoxylin and eosin staining based light microscopic analysis; type: toxicity, organism-based; details: in vivo
[27] = Selectivity index, ratio of dark toxicity against human MDA-MB-231 cells at 5 uM to phototoxicity against human MDA-MB-231 cells at 5 uM; type: cell-based; details: read-out: Selectivity Index
MDA-MB-231 [28] = assay: Induction of apoptosis in human MDA-MB-231 cells assessed as early apoptotic cells after 24 hrs upon light irradiation by Annexin-V FITC/propidium iodide staining based flow cytometric analysis (reference value: 1.22%); type: functional
Mus musculus [29] = assay: Hepatotoxicity in BALB/c mouse xenografted with mouse 4T1 cells assessed as pathological changes in liver at 4 mg/kg, iv pre-tretaed for 24 hrs followed by 50 J/cm2 light irradiation and measured at day 22 post dose by hematoxylin and eosin staining based light microscopic analysis; type: toxicity, organism-based; details: in vivo
MDA-MB-231 [30] = assay: Induction of apoptosis in human MDA-MB-231 cells assessed as viable cells after 24 hrs upon light irradiation by Annexin-V FITC/propidium iodide staining based flow cytometric analysis (reference value: 93.27%); type: functional
MDA-MB-231 [31] = assay: Induction of apoptosis in human MDA-MB-231 cells assessed as necrotic cells after 24 hrs by Annexin-V FITC/propidium iodide staining based flow cytometric analysis (reference value: 4.24%); type: cell-based; details: mda-mb-231, 24 h
[32] = Drug uptake in tumor of BALB/c mouse xenografted with mouse 4T1 cells at 10 mg/kg, iv measured at 12 hrs post injection by IVIS spectrum imaging; type: ADME, organism-based, Neoplasm; details: in vivo
Mus musculus [33] = assay: Toxicity in BALB/c mouse xenografted with mouse 4T1 cells assessed as effect on body weight at 4 mg/kg, iv measured at day 22 post last dose; type: organism-based; details: in vivo
[34] = Dark toxicity against human MCF7 cells assessed as cell viability at 5 uM after 24 hrs by MTT assay; type: cell-based; details: mcf7, 24 h
[35] = Drug uptake in human MDA-MB-231 cells up to 10 uM after 4 hrs by flow cytometric analysis; type: ADME, cell-based; details: mda-mb-231, 4 h
[36] = Dark toxicity against mouse 4T1 cells assessed as cell viability at 5 uM after 24 hrs by MTT assay; type: cell-based; details: 4t1, 24 h
MDA-MB-231 [37] = assay: Induction of apoptosis in human MDA-MB-231 cells assessed as late apoptotic cells after 24 hrs by Annexin-V FITC/propidium iodide staining based flow cytometric analysis (reference value: 1.28%); type: cell-based; details: mda-mb-231, 24 h
[38] = Drug uptake in heart of BALB/c mouse xenografted with mouse 4T1 cells at 10 mg/kg, iv measured at 12 hrs post injection by IVIS spectrum imaging; type: ADME, organism-based; details: in vivo

**Q.** With `COC(C)C1=C(C)c2cc3[nH]c(cc4nc(cc5[nH]c(cc1n2)c(C)c5CCC(=O)O)C(CCC(=O)O)=C4C)c(C)c3C(C)O` (centres undefined) as the compound, how does the Activity (MDA-MB-231 [1]) read?
**A.** 5.7%

**Q.** What about the Activity (Mus musculus [2]) of the same compound?
**A.** Non-Toxic

**Q.** And the Activity (4T1 [3])?
**A.** Active

**Q.** What about the selectivity ratio at 5 µM [4] of the same compound?
**A.** 16.8

**Q.** And the TGI (4T1 [5])?
**A.** inactive

**Q.** And the Activity (4T1 [6])?
**A.** Active

**Q.** What about the selectivity ratio at 5 µM [7] of the same compound?
**A.** 12

**Q.** And the Drug uptake [8]?
**A.** Active

**Q.** What about the viability at 24 h [9] of the same compound?
**A.** 92.2%

**Q.** What about the Activity [10] of the same compound?
**A.** Non-Toxic

**Q.** And the Activity (Mus musculus [11])?
**A.** Non-Toxic

**Q.** And the Activity (MDA-MB-231 [12])?
**A.** 1.99%

**Q.** And the Drug uptake [13]?
**A.** Not Active

**Q.** What about the Drug uptake [14] of the same compound?
**A.** Not Active

**Q.** And the Activity (MCF7)?
**A.** Active

**Q.** What about the Activity (MDA-MB-231 [15]) of the same compound?
**A.** inactive

**Q.** What about the Activity (MDA-MB-231 [16]) of the same compound?
**A.** 30.5%

**Q.** What about the Activity (MDA-MB-231 [17]) of the same compound?
**A.** Active

**Q.** And the Drug uptake [18]?
**A.** Not Active

**Q.** And the Tmax [19]?
**A.** 12 h

**Q.** What about the Activity (MDA-MB-231 [20]) of the same compound?
**A.** 6.83%

**Q.** What about the Drug uptake [21] of the same compound?
**A.** Active

**Q.** And the Activity [22]?
**A.** Dose-dependent effect

**Q.** And the Drug uptake [23]?
**A.** Not Active

**Q.** And the Activity (Mus musculus [24])?
**A.** Non-Toxic

**Q.** What about the Activity (MDA-MB-231 [25]) of the same compound?
**A.** 25.13%

**Q.** What about the Activity (Mus musculus [26]) of the same compound?
**A.** Non-Toxic

**Q.** And the selectivity ratio at 5 µM [27]?
**A.** 18.8

**Q.** What about the Activity (MDA-MB-231 [28]) of the same compound?
**A.** 3.91%

**Q.** And the Activity (Mus musculus [29])?
**A.** Non-Toxic

**Q.** And the Activity (MDA-MB-231 [30])?
**A.** 58.77%

**Q.** What about the Activity (MDA-MB-231 [31]) of the same compound?
**A.** 4.02%

**Q.** What about the Drug uptake [32] of the same compound?
**A.** Active

**Q.** What about the Activity (Mus musculus [33]) of the same compound?
**A.** Non-Toxic

**Q.** What about the Activity [34] of the same compound?
**A.** Non-Toxic

**Q.** And the Drug uptake [35]?
**A.** Not Active

**Q.** And the Activity [36]?
**A.** Non-Toxic

**Q.** What about the Activity (MDA-MB-231 [37]) of the same compound?
**A.** 1.76%

**Q.** And the Drug uptake [38]?
**A.** Not Active
